Source: ChEMBL document CHEMBL4765469, “2-((3,5-Dinitrobenzyl)thio)quinazolinones: Potent Antimycobacterial Agents Activated by Deazaflavin (F)-Dependent Nitroreductase (Ddn)” (J Med Chem, 2021)
In brackets after ≈: the same amount, converted by molar mass.

What was measured:
[1] = test system: Mycobacterium tuberculosis; assay: (§1) Inhibition of Mycobacterium tuberculosis thymidylate kinase in presence of ATP, dTMP, NADH and phosphoenol pyruvate by spectrophotometric assay
[2] = Cytotoxicity in human MRC5 cells by neutral red uptake assay; type: cell-based
[3] = as §1
[4] = test system: Mycobacterium tuberculosis; assay: Antitubercular activity against Mycobacterium tuberculosis H37Rv ATCC 27294 grown under Middlebrook 7H9 Broth assessed as inhibition of all visible growth incubated for 7 to 14 days; type: functional; details: time 7-14 day
[5] = test system: Mycobacterium tuberculosis; assay: Antitubercular activity against Mycobacterium tuberculosis H37Rv; type: functional
[6] = test system: Mycobacterium tuberculosis; assay: Ratio of MIC for antitubercular activity against Mycobacterium tuberculosis H37Rv ATCC 27294 grown under 7H9/ glucose liquid culture in presence of BSA to MIC for antitubercular activity against Mycobacterium tuberculosis H37Rv ATCC 27294 grown under 7H9/ glucose liquid culture; type: functional; details: read-out: MIC>99
[7] = test system: Mycobacterium tuberculosis; assay: Antitubercular activity against Mycobacterium tuberculosis H37Rv ATCC 27294 grown under 7H9/ glucose liquid culture in presence of BSA assessed as inhibition of all visible growth incubated for 7 to 14 days; type: functional; details: time 7-14 day
[8] = test system: Mycobacterium tuberculosis; assay: Antitubercular activity against Mycobacterium tuberculosis H37Rv ATCC 27294 grown under 7H9/ADC assessed as inhibition of all visible growth incubated for 7 to 14 days; type: functional; details: time 7-14 day
[9] = test system: Mycobacterium tuberculosis; assay: Antitubercular activity against Mycobacterium tuberculosis H37Rv ATCC 27294 grown under GAST/Fe medium assessed as inhibition of all visible growth incubated for 7 to 14 days; type: functional; details: time 7-14 day
[10] = Genotoxicity in Salmonella typhimurium TA98 up to 349 uM incubated for 48 hrs in absence of rat liver S9 fraction by Ames test; type: toxicity; details: salmonella enterica subsp. enterica serovar typhimurium, s9, 48 h
[11] = test system: Mycobacterium tuberculosis; assay: Antitubercular activity against Mycobacterium tuberculosis 14A1 deficient in nitroreductase rv3547 assessed as inhibition of all visible growth grown under 7H9/ glucose liquid culture incubated for 7 to 14 days; type: functional; details: time 7-14 day
[12] = Inhibition of Mycobacterium tuberculosis thymidylate kinase
[13] = Genotoxicity in Salmonella typhimurium TA98 up to 349 uM incubated for 48 hrs in presence of rat liver S9 fraction by Ames test; type: toxicity, subcellular; details: salmonella enterica subsp. enterica serovar typhimurium, s9, 48 h
[14] = Genotoxicity in Salmonella typhimurium TA100 up to 349 uM incubated for 48 hrs in absence of rat liver S9 fraction by Ames test; type: toxicity; details: salmonella enterica subsp. enterica serovar typhimurium, s9, 48 h
[15] = Genotoxicity in Salmonella typhimurium TA100 up to 349 uM incubated for 48 hrs in presence of rat liver S9 fraction by Ames test; type: toxicity, subcellular; details: salmonella enterica subsp. enterica serovar typhimurium, s9, 48 h

Row | SMILES | CC50 [2] [µM] | MIC99 [4] [µM] | MIC ratio, with BSA / without BSA [6] [µM] | MIC99 [7] [µM] | MIC99 [9] [µM] | also measured
1 | NNC(=O)c1ccncc1 |  |  |  |  |  | MIC>99 [1]: 0.15 µM
2 | O=c1[nH]c([S+]([O-])Cc2cc([N+](=O)[O-])cc([N+](=O)[O-])c2)nc2ccccc12 (stereo not given) | > 64 | 50 (≈ 18.7 µg/mL) |  |  |  | IC50 [3]: 217 µM
3 | COc1ccc(CSc2nc3ccccc3c(=O)[nH]2)cc1 | > 64 | > 50 |  |  |  | 
4 | O=c1[nH]c(SCc2ccc(Cl)c(Cl)c2)nc2ccccc12 | > 64 | > 50 |  |  |  | 
5 | O=C(CSc1nc2ccccc2c(=O)[nH]1)NC1CCCCC1 |  |  |  |  |  | MIC [5]: 0.3 µM
6 | Oc1nc(SCc2cccc(Cl)c2)nc2ccccc12 | > 64 | 3.13 (≈ 0.948 µg/mL) | > 16 | > 50 | 19 (≈ 5.75 µg/mL) | MIC99 [8]: > 50 µM
7 | O=[N+]([O-])c1ccc2c(c1)Cc1ccccc1-2 [2-NITROFLUORENE] |  |  |  |  |  | Activity [10]: Toxic
8 | Cc1ccc(CSc2nc(O)c3ccccc3n2)cc1 | > 64 | > 50 |  |  |  | 
9 | CSc1nc(-c2cccc(Br)c2)c(C#N)c(=O)[nH]1 | > 64 | 25 (≈ 8.05 µg/mL) |  |  |  | IC50 [3]: 82 µM
10 | O=c1[nH]c(SCc2cc([N+](=O)[O-])cc([N+](=O)[O-])c2)nc2ccc(F)cc12 | > 64 | 1.2 (≈ 0.452 µg/mL) | 52 | 6.25 | 1.2 (≈ 0.452 µg/mL) | MIC99 [11]: 6.25 µM (≈ 2.35 µg/mL)
11 | O=c1[nH]c(SCc2cc([N+](=O)[O-])cc([N+](=O)[O-])c2)nc2ccc(Br)cc12 | > 64 | 3.13 (≈ 1.37 µg/mL) | 11.8 | 37 | 3.13 (≈ 1.37 µg/mL) | MIC99 [11]: > 50 µM
12 | O=c1[nH]c(SCc2cc([N+](=O)[O-])cc([N+](=O)[O-])c2)nc2cc(Cl)ccc12 | > 64 | 2.3 (≈ 0.903 µg/mL) | 10.8 | 25 | 0.72 (≈ 0.283 µg/mL) | MIC99 [8]: 25 µM (≈ 9.82 µg/mL)
13 | O=c1[nH]c(SCc2c([N+](=O)[O-])cccc2[N+](=O)[O-])nc2ccccc12 | > 64 | > 50 |  |  |  | 
14 | COc1cccc(-c2cc(SC)c(C#N)c(=O)[nH]2)c1 |  |  |  |  |  | IC50 [12]: 1.5 µM; MIC [5]: > 64 µM
15 | O=c1[nH]c(SCc2cc([N+](=O)[O-])cc([N+](=O)[O-])c2)nc2c(Cl)cccc12 | > 64 | > 50 |  |  |  | 
16 | CN1CCN(c2ccc3nc(SCc4cc([N+](=O)[O-])cc([N+](=O)[O-])c4)[nH]c(=O)c3c2)CC1 | 49 | 9.4 (≈ 4.29 µg/mL) | 1 | 9.4 | 9.4 (≈ 4.29 µg/mL) | MIC99 [11]: 37 µM (≈ 16.9 µg/mL)
17 | Cc1ccc2nc(SCc3cc([N+](=O)[O-])cc([N+](=O)[O-])c3)[nH]c(=O)c2c1 | > 64 | 1.56 (≈ 0.581 µg/mL) | 4 | 6.25 | 1.56 (≈ 0.581 µg/mL) | MIC99 [11]: > 50 µM
18 | O=c1[nH]c(SCc2cccs2)nc2ccccc12 | > 64 | > 50 |  |  |  | 
19 | CCOC(=O)c1c(-c2ccccc2)oc2ccc(O)c(CN3CCC(C)CC3)c12 |  |  |  |  |  | MIC [5]: 1 µg/mL
20 | O=c1[nH]c(SCc2cccc([N+](=O)[O-])c2)nc2ccccc12 | > 64 | > 50 |  |  |  | 
21 | O=c1[nH]c(SCc2cc([N+](=O)[O-])cc([N+](=O)[O-])c2)nc2ccc(Cl)cc12 | > 64 | 0.78 (≈ 0.306 µg/mL) | 4 | 3.13 | 0.2 (≈ 0.0786 µg/mL) | MIC99 [8]: 4.7 µM (≈ 1.85 µg/mL)
22 | O=c1[nH]c(SCc2ccccc2[N+](=O)[O-])nc2ccccc12 | > 64 | 12.5 (≈ 3.92 µg/mL) | > 4 | > 50 | 25 (≈ 7.83 µg/mL) | MIC99 [8]: > 50 µM
23 | CSc1cc(-c2ccccc2)nc(O)c1C#N |  |  |  |  |  | MIC [5]: > 64 µM
24 | COc1cccc(CSc2nc3ccccc3c(=O)[nH]2)c1 | > 64 | 0.78 (≈ 0.233 µg/mL) | > 64 | > 50 | 50 (≈ 14.9 µg/mL) | MIC99 [8]: > 50 µM
25 | COc1ccccc1CSc1nc2ccccc2c(=O)[nH]1 |  | > 50 |  |  |  | 

Row | SMILES | CC50 [2] [µM] | MIC99 [4] [µM] | MIC ratio, with BSA / without BSA [6] [µM] | MIC99 [7] [µM] | MIC99 [9] [µM] | also measured
26 | CC1CCN(Cc2c(O)ccc3oc4c5ccccc5oc(=O)c4c23)CC1 |  |  |  |  |  | MIC [5]: 0.125 µg/mL
27 | Cn1c(SCc2cc([N+](=O)[O-])cc([N+](=O)[O-])c2)nc2ccccc2c1=O | > 64 | 1.56 (≈ 0.581 µg/mL) | 2 | 3.13 | 0.39 (≈ 0.145 µg/mL) | MIC99 [8]: 3.13 µM (≈ 1.17 µg/mL)
28 | CN(C)c1ccc2nc(SCc3cc([N+](=O)[O-])cc([N+](=O)[O-])c3)[nH]c(=O)c2c1 | 14 | > 50 |  |  |  | 
29 | O=c1[nH]c(SCc2cc([N+](=O)[O-])cc(C(F)(F)F)c2)nc2ccccc12 | > 64 | > 50 |  |  |  | 
30 | O=c1[nH]c(SCc2ccc([N+](=O)[O-])o2)nc2ccccc12 | 35 | > 50 |  |  |  | 
31 | O=c1[nH]c(SCc2ccc([N+](=O)[O-])cc2)nc2ccccc12 | > 64 | ≥ 50 |  |  |  | 
32 | Oc1nc(SCc2ccc(Cl)cc2)nc2ccccc12 | > 64 | > 50 |  |  |  | 
33 | O=c1[nH]c(SCc2cc([N+](=O)[O-])cc([N+](=O)[O-])c2)nc2ccccc12 | > 64 | 0.6 (≈ 0.215 µg/mL) | 2.6 | 1.56 | 0.78 (≈ 0.28 µg/mL) | MIC99 [8]: 2.3 µM (≈ 0.824 µg/mL); MIC99 [11]: 12.5 µM (≈ 4.48 µg/mL); IC50 [3]: 120 µM; Activity [13]: Non-Toxic; Activity [14]: Non-Toxic; Activity [10]: Toxic; Activity [15]: Non-Toxic
34 | O=C(CSc1nc2c(F)cccc2c(=O)[nH]1)NC1CCC(F)(F)CC1 |  |  |  |  |  | MIC [5]: 0.09 µM
35 | O=c1[nH]c(SCc2cc([N+](=O)[O-])cc([N+](=O)[O-])c2)nc2ccncc12 | > 64 | > 50 |  |  |  | 
36 | O=c1[nH]c(SCc2cc([N+](=O)[O-])cc([N+](=O)[O-])c2)nc2ncccc12 | > 64 | ≥ 50 |  |  |  | 
37 | O=c1[nH]c(SCc2ccc(-c3ccccc3)cc2)nc2ccccc12 | > 64 | > 50 |  |  |  | 
38 | CCOC(=O)C1=C(NC(=O)c2c(F)c(F)c(F)c(F)c2F)OC2CN(CC)CCC12 (stereo not given) |  |  |  |  |  | MIC [5]: 0.69 µM
39 | N#Cc1c(-c2cccc(Br)c2)nc(SCc2ccccc2)[nH]c1=O | > 36 | 25 (≈ 9.96 µg/mL) |  |  |  | IC50 [3]: 49 µM
40 | O=c1[nH]c(SCc2cc([N+](=O)[O-])cc([N+](=O)[O-])c2)nc2ccc(N3CCCCC3)cc12 | > 64 | > 50 |  |  |  | 
41 | CCOC(=O)C1=C(NC(=O)c2c(F)c(F)c(F)c(F)c2F)OC(C(N)=O)C1C (stereo not given) |  |  |  |  |  | MIC [5]: 0.5 µM
42 | N#Cc1c(-c2cccc(Br)c2)nc(SCc2cc([N+](=O)[O-])cc([N+](=O)[O-])c2)[nH]c1=O | > 64 | > 64 |  |  |  | IC50 [3]: 4.3 µM
43 | O=c1[nH]c(SCc2cc([N+](=O)[O-])cc([N+](=O)[O-])c2)nc2ccc(N3CCOCC3)cc12 | > 64 | 4.7 (≈ 2.08 µg/mL) | 0.66 | 3.13 | 3.13 (≈ 1.39 µg/mL) | MIC99 [11]: 19 µM (≈ 8.43 µg/mL)
44 | O=c1[nH]c(SCc2ccc([N+](=O)[O-])cc2[N+](=O)[O-])nc2ccccc12 | > 64 | > 50 |  |  |  | 
45 | O=c1[nH]c(SCc2ccccc2)nc2ccccc12 | > 64 | 12.5 (≈ 3.35 µg/mL) | > 4 | > 50 | 19 (≈ 5.1 µg/mL) | MIC99 [8]: > 50 µM
46 | O=c1[nH]c(SCc2cc([N+](=O)[O-])cc([N+](=O)[O-])c2)nc2cccnc12 | > 64 | 19 (≈ 6.83 µg/mL) | > 2.6 | > 50 | 12.5 (≈ 4.49 µg/mL) | MIC99 [11]: 50 µM (≈ 18 µg/mL)
47 | O=c1[nH]c(SCc2cc([N+](=O)[O-])cc([N+](=O)[O-])c2)nc2cccc(Cl)c12 | > 64 | ≥ 50 |  |  |  | 
48 | O=c1[nH]c(SCc2cc([N+](=O)[O-])cc([N+](=O)[O-])c2)nc2cnccc12 | > 64 | > 50 |  |  |  | 
49 | O=c1[nH]c(SCc2ccc([N+](=O)[O-])s2)nc2ccccc12 | > 64 | 350 (≈ 112 µg/mL) |  |  |  | 
50 | O=c1[nH]c(SCc2ccccc2Cl)nc2ccccc12 | > 65 | 2.3 (≈ 0.696 µg/mL) | > 21.7 | > 50 | 37 (≈ 11.2 µg/mL) | MIC99 [8]: > 50 µM
